pEC50: −log10 of the molar value.
What was measured:
[1] = system: soluble adenylyl cyclase (sAC); assay: FRET assay of soluble adenylyl cyclase activity in HEK293-sAC cells transduced with H188; assay type: cell-based
Protocol: These actions of Rp-8-Br-cAMPS-pAB were not reproduced by the negative control 4-acetoxybenzy alcohol (4-Abn-OH) that lacks the cAMP moiety (Fig. 3e1,e2)[36].
HEK293-H188-C24 cells stably expressing H188 were plated at 80% confluence on 96-well clear-bottom assay plates (Costar 3904, Corning, NY) coated with rat tail collagen (Collaborative Biomedical Products, Bedford, MA). HEK293 cells stably expressing select GPCRs were transduced for 16 hours with H188 virus at a density of ca. 60,000 cells/well under conditions in which the multiplicity of infection (m.o.i.) was equivalent to 25 viral particles per cell. For all assays, the culture media was then removed and replaced by 200 μl/well of a standard extracellular saline (SES) solution supplemented with 11 mM glucose and 0.1% BSA[31],[34]–[36]. The composition of the SES was (in mM): 138 NaCl, 5.6 KCl, 2.6 CaCl2, 1.2 MgCl2, 11.1 glucose, and 10 Hepes (295 mOsmol, pH 7.4). Real-time kinetic assays of FRET were performed using a FlexStation 3 microplate reader equipped with monochromators (Molecular Devices, Sunnyvale, CA). Excitation light was delivered at 435/9 nm (455 nm cut-off), and emitted light was detected at 485/15 nm (CFP) or 535/15 nm (YFP)[31],[34]–[36]. […] The 485/535 emission ratio was calculated for each well and the mean +/− s.d. values for 12 wells were averaged. […]

wild-type HEK293 cells = assay: FRET cAMP assay in wild-type HEK293 cells transduced with H188 (negative control); assay type: cell-based, human; details: WT HEK293 lacking recombinant receptors, H188 virus; IBMX at 50 μM
Protocol: (§1) HEK293-H188-C24 cells stably expressing H188 were plated at 80% confluence on 96-well clear-bottom assay plates (Costar 3904, Corning, NY) coated with rat tail collagen (Collaborative Biomedical Products, Bedford, MA). HEK293 cells stably expressing select GPCRs were transduced for 16 hours with H188 virus at a density of ca. 60,000 cells/well under conditions in which the multiplicity of infection (m.o.i.) was equivalent to 25 viral particles per cell. For all assays, the culture media was then removed and replaced by 200 μl/well of a standard extracellular saline (SES) solution supplemented with 11 mM glucose and 0.1% BSA[31],[34]–[36]. The composition of the SES was (in mM): 138 NaCl, 5.6 KCl, 2.6 CaCl2, 1.2 MgCl2, 11.1 glucose, and 10 Hepes (295 mOsmol, pH 7.4). Real-time kinetic assays of FRET were performed using a FlexStation 3 microplate reader equipped with monochromators (Molecular Devices, Sunnyvale, CA). Excitation light was delivered at 435/9 nm (455 nm cut-off), and emitted light was detected at 485/15 nm (CFP) or 535/15 nm (YFP)[31],[34]–[36]. The emission intensities were the averages of 12 excitation flashes for each time point per well.

human GLP-1R = assay: FRET cAMP assay in HEK293-GLP-1R cells (stable human GLP-1R) virally transduced with H188; assay type: cell-based; details: HEK293-GLP-1R cells transduced with H188
Protocol: as §1

[2] = system: H188 (Epac1-based cAMP biosensor); assay: FRET response of biosensor H188 to cAMP analogs and Epac inhibitors in HEK293-H188-C24 cells; assay type: cell-based
Description: (§2) H188 contains the cAMP sensor Epac1 in which the full-length protein is truncated to remove the Disheveled, Egl-10, and Pleckstrin (DEP) membrane-targeting domain so that its expression is confined largely to the cytoplasm (Fig. 2a,b)[30]. T781A and F782A mutations introduced within the CDC25 homology domain disrupt guanine nucleotide exchange factor (GEF) activity so that binding of cAMP to H188 is not linked to downstream signaling events mediated by the Epac1 effector protein Rap1 GTPase (Fig. 2a)[30]. In H188 the Epac1 backbone is flanked by an mTurquoise2Δ FRET donor chromophore at the N-terminus, and tandem cp173 Venus-Venus FRET acceptor chromophores at the C-terminus (Fig. 2a). Binding of cAMP reduces FRET so that when exciting with 440 nm light, there is an increase of 485 nm (mTuquoise2Δ) and a decrease of 535 nm (cp173 Venus-Venus) emission fluorescence. This ΔFRET is measured as an increase of the 485/535 nm FRET ratio.
HEK293-H188-C24 cells stably expressing H188 were plated at 80% confluence on 96-well clear-bottom assay plates (Costar 3904, Corning, NY) coated with rat tail collagen (Collaborative Biomedical Products, Bedford, MA). HEK293 cells stably expressing select GPCRs were transduced for 16 hours with H188 virus at a density of ca. 60,000 cells/well under conditions in which the multiplicity of infection (m.o.i.) was equivalent to 25 viral particles per cell. For all assays, the culture media was then removed and replaced by 200 μl/well of a standard extracellular saline (SES) solution supplemented with 11 mM glucose and 0.1% BSA[31],[34]–[36]. The composition of the SES was (in mM): 138 NaCl, 5.6 KCl, 2.6 CaCl2, 1.2 MgCl2, 11.1 glucose, and 10 Hepes (295 mOsmol, pH 7.4). Real-time kinetic assays of FRET were performed using a FlexStation 3 microplate reader equipped with monochromators (Molecular Devices, Sunnyvale, CA). Excitation light was delivered at 435/9 nm (455 nm cut-off), and emitted light was detected at 485/15 nm (CFP) or 535/15 nm (YFP)[31],[34]–[36]. The emission intensities were the averages of 12 excitation flashes for each time point per well. Test solutions dissolved in SES were placed in V-bottom 96-well plates (Greiner Bio-One, Monroe, NC), and an automated pipetting procedure was used to transfer 50 μl of each test solution to each well of the assay plate containing monolayers of these cells. The 485/535 emission ratio was calculated for each well and the mean +/− s.d. values for 12 wells were averaged. To facilitate comparisons amongst different experiments, these FRET ratio values were normalized using baseline subtraction so that a y-axis value of 1 corresponds to the initial baseline FRET ratio, whereas a value of 2 corresponds to a doubling of the FRET ratio. The time course of the ΔFRET ratio was plotted after exporting data to Origin 8.0 (OriginLab, Northampton, MA). Origin 8.0 was also used for generation of Hill plots describing dose-response relationships.

[3] = system: HEK293-H188-C24 cells (cAMP production); assay: High-throughput FRET assay of cAMP, forskolin in HEK293-H188-C24 cells; assay type: cell-based; details: Homo sapiens; HEK293-H188-C24 monolayers, 96-well microplate reader, 485/535 nm FRET ratio; read-out: EC50 of forskolin for H188 ΔFRET (sensitivity)
Description: as §2
HEK293-H188-C24 cells stably expressing H188 were plated at 80% confluence on 96-well clear-bottom assay plates (Costar 3904, Corning, NY) coated with rat tail collagen (Collaborative Biomedical Products, Bedford, MA). […] Real-time kinetic assays of FRET were performed using a FlexStation 3 microplate reader equipped with monochromators (Molecular Devices, Sunnyvale, CA). […]

rat GIP receptor = assay: FRET cAMP assay in HEK293 cells stably expressing GIP receptor, transduced with H188; assay type: cell-based; details: GIP 3 nM
Protocol: as §1

rat glucagon receptor = assay: FRET cAMP assay in HEK293 cells stably expressing glucagon receptor, transduced with H188; assay type: cell-based; details: Glucagon 3 nM
Protocol: as §1

**Q.** Which “Effect on levels of cAMP in HEK293-sAC cells” value ([1]; IBMX 50 μM, H188 by viral transduction) does the source give for `CC(C)Cn1c(=O)n(C)c(=O)c2[nH]cnc21` [IBMX, isobutylmethylxanthine] here?
**A.** raised levels of cAMP

**Q.** What about the “Effect on levels of cAMP in wild-type HEK293 cells” value (wild-type HEK293 cells) of the same molecule?
**A.** failed to raise levels of cAMP

**Q.** What about the “Effect on the cAMP-elevating action of GLP-1” value (human GLP-1R) of the same molecule?
**A.** potentiated the action of GLP-1

**Q.** `Nc1nc(Cl)cc(N(Cc2ccsc2)C2CC2)n1` [LRE1] was tested. Which “Effect on IBMX-induced rise of cAMP in HEK293-sAC cells” value ([1]; LRE1 50 μM versus IBMX 50 μM) did it give?
**A.** blocked

**Q.** With `Cl.c1ccc(C2CCCC2NC2=NCCCCCCCCCCC2)cc1` (stereo not shown) [MDL-12,330 A] as the molecule, how does the “Effect on the cAMP-elevating action of GLP-1” value (human GLP-1R) read?
**A.** suppressed the action of GLP-1

**Q.** `CC(=O)Oc1ccc(CSP2(=O)OC[C@H]3O[C@@H](n4c(Br)nc5c(N)ncnc54)[C@H](O)[C@@H]3O2)cc1` (stereo partly shown) [Rp-8-Br-cAMPS-pAB] was tested. Which “Effect on baseline FRET ratio when administered alone” value [2] did it give?
**A.** weak partial agonist effect

**Q.** What about the “Effect on ΔFRET measured in response to forskolin” value [2] of the same molecule?
**A.** inhibited the ΔFRET

**Q.** `C=C[C@@]1(C)CC(=O)[C@]2(O)[C@@]3(C)[C@@H](O)CCC(C)(C)[C@@H]3[C@H](O)[C@H](OC(C)=O)[C@@]2(C)O1` [forskolin] was tested. Which pEC50 [3] did it give?
**A.** 6.30

**Q.** Which “Effect on cAMP at GIP receptor, 3 nM” value (rat GIP receptor) does the source give for “gastric inhibitory polypeptide (YAEGTFISDYSIAMDKIHQQDFVNWLLAQKGKKNDWKHNITQ) [GIP, hormone]” here?
**A.** did raise levels of cAMP

**Q.** With glucagon as the molecule, how does the “Effect on cAMP at glucagon receptor, 3 nM” value (rat glucagon receptor) read?
**A.** did raise levels of cAMP

Source: publication PMC5830615 (Scientific Reports, 2018)
